What was measured:
Format in all cases: functional, Mytilus edulis/galloprovincialis MCLGV-2007
[1] = test system: Mytilus edulis; test: Antifouling activity against blue mussel assessed as responding mussel at 1 ppm by foot stimulant method
[2] = test system: Mytilus edulis; test: Antifouling activity against blue mussel assessed as responding mussel at 10 ppm by foot stimulant method
[3] = test system: Mytilus edulis; test: Antifouling activity against blue mussel assessed as responding mussel at 100 ppm by foot stimulant method

Row | Structure (SMILES) | Activity [1] [%] | Activity [2] [%] | Activity [3] [%]
1 | CC(=O)O[C@H]1C[C@H]2[C@@](C)(CC[C@H]3C(C)(C)CCC[C@@]32C=O)[C@@H]2CC=C(C(C)=O)[C@H](C=O)[C@@]12C | 10 | 55 | 75
2 | CC(=O)OC[C@]12CCCC(C)(C)[C@@H]1CC[C@]1(C)[C@@H]2C[C@H]2OC(=O)[C@H]3[C@H](C(C)=O)[C@@H](O)C[C@@H]1[C@]23C | 90 | 100 | 100
3 | C=CC(CC[C@@H](C)[C@H]1CC[C@@H]2[C@]1(C)CC[C@H]1[C@]23C=C[C@]2(C[C@@H](O)CC[C@]12C)OO3)(OO)C(C)C (mixture of isomers) | 0 | 20 | 95
4 | C=C(CC[C@@H](C)[C@H]1CC[C@@H]2[C@]1(C)CC=C1[C@]23C=C[C@]2(C[C@@H](O)CC[C@]12C)OO3)C(C)C | 0 | 0 | 0
5 | CC(C)CCC[C@@H](C)[C@H]1CC[C@@H]2[C@]1(C)CC[C@H]1[C@]23C=C[C@]2(C[C@@H](O)CC[C@]12C)OO3 | 0 | 0 | 0
6 | CC(=O)C1=CC[C@H]2[C@]3(C)CC[C@H]4C(C)(C)CCC[C@]4(C(=O)O)[C@H]3CC(=O)[C@]2(C)[C@H]1C=O | 95 | 100 | 100
